# Measured values taken from patent US6610304B1, “Liposomes containing multiple branch peptide constructions for use against human immunodeficiency virus” (priority 1997, dated 2003).
# Legend:
# [1] = Toxicity, intravenous injection into mice; assay type: in vivo; conditions: 50 mg/kg of SPC3, immediately, after 12 or 24 hours
# Method: To determine toxicity, the 250 nm dialysed liposomes containing SPC3 were injected intravenously into 8 mice at a dose of 50 mg/kg of SPC3.
# [2] = tested on: HIV-1 Hx10 clone; test: Fusion assay: inhibition of syncytium formation; assay type: cell-based; conditions: concentration 10^−6 M, C8166 cells
# Method: C8166 cells were incubated at 37° C. with HIV-1 Hx10 clone (B. Hahn, University of Alabama, USA) in the presence of test substances (SPC3, SPC RL, empty liposomes of 110 nm and 250 nm average size, and dialysed and non-dialysed liposomes of those sizes containing SPC3) and in the absence of any test substance (control). The samples were inspected by phase contrast microscopy and syncytia were scored after 48 and 72 hours of incubation in 96-well flat-bottomed cultured plates. Experiments were performed three times in duplicate and identical results were obtained. The presence of syncytia is indicated by + signs. allocated as follows: […]
# [3] = tested on: HIV-1 Hx10clone; test: Infection assay: inhibition of cell infection (cell-free p24 by ELISA); assay type: cell-based; conditions: C8166 cells, supernatant ELISA, no unit or concentration given
# Method: C8166 cells were washed once in RPMI medium and then infected with HIV-1 Hx10clone by incubation at 37° C. for 2 hours in the presence of test substances (SPC3, SPC RL, empty liposomes of 110 nm and 250 nm average size, and dialysed and non-dialysed liposomes of those sizes containing SPC3) and in the absence of any test substance (control). After incubation, the virus was removed and the cells were incubated with fresh medium at 37° C. in the presence of the test substances or in the absence of any test substance (control). Infections and cell cultures were in 96-well culture plates. The production of HIV was monitored by measuring the concentration of cell-free p24 in the supernatant by ELISA, as described by Gluschankof et al., 1997, using the AMPAK amplification kit (DAKO. Trappes, France). The results are shown in Table 2 below, and the day 4 results are also shown graphically in the accompanying drawing.
Compound,symptoms of toxicity [1],Syncitia Formation ([2]; Day 2 post-infection),Syncitia Formation ([2]; Day 3 post-infection),p24 production ([3]; Day 3 post-infection),p24 production ([3]; Day 4 post-infection)
"C[C@H](NC(=O)[C@H](CCCNC(=N)N)NC(=O)CNC(=O)[C@@H]1CCCN1C(=O)CN)C(=O)N[C@@H](Cc1ccccc1)C(=O)NCCCC[C@H](NC(=O)[C@H](Cc1ccccc1)NC(=O)[C@H](C)NC(=O)[C@H](CCCNC(=N)N)NC(=O)CNC(=O)[C@@H]1CCCN1C(=O)CN)C(=O)NCCCC[C@H](NC(=O)[C@H](CCCCNC(=O)[C@H](Cc1ccccc1)NC(=O)[C@H](C)NC(=O)[C@H](CCCNC(=N)N)NC(=O)CNC(=O)[C@@H]1CCCN1C(=O)CN)NC(=O)[C@H](Cc1ccccc1)NC(=O)[C@H](C)NC(=O)[C@H](CCCNC(=N)N)NC(=O)CNC(=O)[C@@H]1CCCN1C(=O)CN)C(=O)NCCCC[C@H](NC(=O)[C@H](CCCCNC(=O)[C@H](CCCCNC(=O)[C@H](Cc1ccccc1)NC(=O)[C@H](C)NC(=O)[C@H](CCCNC(=N)N)NC(=O)CNC(=O)[C@@H]1CCCN1C(=O)CN)NC(=O)[C@H](Cc1ccccc1)NC(=O)[C@H](C)NC(=O)[C@H](CCCNC(=N)N)NC(=O)CNC(=O)[C@@H]1CCCN1C(=O)CN)NC(=O)[C@H](CCCCNC(=O)[C@H](Cc1ccccc1)NC(=O)[C@H](C)NC(=O)[C@H](CCCNC(=N)N)NC(=O)CNC(=O)[C@@H]1CCCN1C(=O)CN)NC(=O)[C@H](Cc1ccccc1)NC(=O)[C@H](C)NC(=O)[C@H](CCCNC(=N)N)NC(=O)CNC(=O)[C@@H]1CCCN1C(=O)CN)C(=O)NCCC(=O)O [SPC3, (GPGRAF)8-(K)4-(K)2-K-βA-OH]",symptoms of toxicity were observed,–,–,–,–
(RQGYSPL)8-(K)4-(K)2-K-βA-OH [SPC RL],–,+/− (+/−=>95 % decrease),+/− (+/−=>95 % decrease),0.441,0.463
